Test results as given in patent US20140213513A1 (Sanofi, priority 2012, published 2014).
*1 amine or outer side, *2 acyl side, *3 side chain or, on linkers, in order; H or OH if unused. Where a SMILES comes first, the peptide text is derived from it. Side-chain parts run from the residue outwards. [ ]: non-standard residue; d: D form. The star is where a group is joined. γGlu = O=C(O)[C@H](CCC(=O)[*:2])N[*:1]; Palmitoyl = CCCCCCCCCCCCCCCC(=O)*; Aib = CC(C)(N)C(=O)O

Key:
Assay type in all cases: cell-based
Details in all cases: Table 7; cAMP formation
[1] = target: T1, human GLP-1 receptor (hGLP-1 R) (Homo sapiens, UniProt P43220); experiment: cAMP response of HEK-293 cells stably expressing human GLP-1 receptor (HTRF)
T1 construct: expressed in transfected cells
T1 sequence (P43220 24-463): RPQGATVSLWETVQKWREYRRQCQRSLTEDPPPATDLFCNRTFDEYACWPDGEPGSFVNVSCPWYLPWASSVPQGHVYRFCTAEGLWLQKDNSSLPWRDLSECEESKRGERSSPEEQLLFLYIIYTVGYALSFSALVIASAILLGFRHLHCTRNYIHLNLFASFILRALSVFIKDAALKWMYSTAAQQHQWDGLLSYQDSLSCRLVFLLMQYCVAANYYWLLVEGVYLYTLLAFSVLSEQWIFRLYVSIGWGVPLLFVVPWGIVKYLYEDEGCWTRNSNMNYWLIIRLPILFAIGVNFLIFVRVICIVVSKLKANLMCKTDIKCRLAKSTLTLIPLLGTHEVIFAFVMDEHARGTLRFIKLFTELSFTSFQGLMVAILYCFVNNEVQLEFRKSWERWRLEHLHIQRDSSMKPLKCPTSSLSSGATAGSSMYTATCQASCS
Summary of the method: (§1)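 HEK-293 cells stably expressing the receptor were resuspended at 400000 cells/ml in HBSS/20 mM HEPES/0.1% BSA buffer with 2 mM IBMX. Cells were stimulated with compound for 30 min at room temperature. Intracellular cAMP was measured by HTRF.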

[2] = target: T2, human GIP receptor (hGIP R) (Homo sapiens, UniProt P48546); experiment: cAMP response of HEK-293 cells stably expressing human GIP receptor (HTRF)
T2 construct: expressed in transfected cells
T2 sequence (P48546 22-466): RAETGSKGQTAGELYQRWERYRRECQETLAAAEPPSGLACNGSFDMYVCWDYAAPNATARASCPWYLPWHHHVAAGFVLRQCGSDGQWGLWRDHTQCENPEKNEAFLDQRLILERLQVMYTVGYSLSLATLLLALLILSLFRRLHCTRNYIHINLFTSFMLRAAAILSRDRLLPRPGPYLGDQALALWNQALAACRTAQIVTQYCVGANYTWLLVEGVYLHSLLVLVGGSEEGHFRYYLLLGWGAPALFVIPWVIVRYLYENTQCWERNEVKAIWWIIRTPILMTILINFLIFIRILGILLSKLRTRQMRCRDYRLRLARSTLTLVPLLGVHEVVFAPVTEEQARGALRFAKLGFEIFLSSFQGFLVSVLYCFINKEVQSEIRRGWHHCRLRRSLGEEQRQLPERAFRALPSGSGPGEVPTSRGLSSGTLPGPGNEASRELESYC
Summary of the method: as §1

[3] = target: T3, human glucagon receptor (hGLUC R) (Homo sapiens, UniProt P47871); experiment: cAMP response of HEK-293 cells stably expressing human glucagon receptor (HTRF)
T3 construct: expressed in transfected cells
T3 sequence (P47871 26-477): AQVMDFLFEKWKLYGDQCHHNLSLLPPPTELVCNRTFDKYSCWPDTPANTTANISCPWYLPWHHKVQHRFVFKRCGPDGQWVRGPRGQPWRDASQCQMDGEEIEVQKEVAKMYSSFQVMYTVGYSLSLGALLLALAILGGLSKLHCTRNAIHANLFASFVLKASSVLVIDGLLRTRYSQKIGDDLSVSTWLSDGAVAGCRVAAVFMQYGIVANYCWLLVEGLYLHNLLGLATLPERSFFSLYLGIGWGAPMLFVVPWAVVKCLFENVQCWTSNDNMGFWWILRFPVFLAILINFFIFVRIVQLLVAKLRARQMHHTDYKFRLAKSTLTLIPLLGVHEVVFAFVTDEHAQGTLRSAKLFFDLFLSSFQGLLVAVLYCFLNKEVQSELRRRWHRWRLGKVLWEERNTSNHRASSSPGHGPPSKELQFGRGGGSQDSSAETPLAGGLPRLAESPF
Summary of the method: as §1

Row | SMILES | EC50 [1] [nM] | EC50 [2] [nM] | EC50 [3] [nM]
1 | CCCCCCCCCCCCCCCC(=O)N[C@@H](CCC(=O)NCCCC[C@H](NC(=O)[C@H](CCC(N)=O)NC(=O)[C@@H](NC(=O)[C@H](CO)NC(=O)[C@H](CC(C)C)NC(=O)[C@H](CC(=O)O)NC(=O)[C@H](CO)NC(=O)[C@@H](NC(=O)[C@H](Cc1ccccc1)NC(=O)[C@@H](NC(=O)CNC(=O)[C@H](CCC(N)=O)NC(=O)C(C)(C)NC(=O)[C@@H](N)Cc1ccc(O)cc1)[C@@H](C)O)[C@@H](C)O)[C@@H](C)CC)C(=O)N[C@@H](CC(=O)O)C(=O)N[C@@H](CCCCN)C(=O)N[C@@H](CCCNC(=N)N)C(=O)N[C@@H](C)C(=O)N[C@@H](C)C(=O)N[C@@H](CCC(N)=O)C(=O)N[C@@H](CC(=O)O)C(=O)N[C@@H](Cc1ccccc1)C(=O)N[C@H](C(=O)N[C@@H](CCC(=O)O)C(=O)N[C@@H](Cc1c[nH]c2ccccc12)C(=O)N[C@@H](CC(C)C)C(=O)N[C@@H](CCCCN)C(=O)N[C@@H](CCCCN)C(=O)NCC(=O)NCC(=O)N1CCC[C@H]1C(=O)N[C@@H](CO)C(=O)N[C@@H](CO)C(=O)NCC(=O)N[C@@H](C)C(=O)N1CCC[C@H]1C(=O)N1CCC[C@H]1C(=O)N1CCC[C@H]1C(=O)N[C@@H](CO)C(N)=O)[C@@H](C)CC)C(=O)O [SEQ ID NO: 44, Y-Aib-Q-G-T-F-T-S-D-L-S-I-Q-K(yE-x53)-DKRAAQDFIEWLKKGGPSSGAPPPS-NH2] (H-Y[Aib]QGTFTSDLSIQK([γGlu-Palmitoyl])DKRAAQDFIEWLKKGGPSSGAPPPS-NH2) | 0.0097 | 0.0255 | 0.0552
2 | CCCCCCCCCCCCCCCC(=O)N[C@@H](CCC(=O)NCCCC[C@H](NC(=O)[C@H](CCC(N)=O)NC(=O)[C@@H](NC(=O)[C@H](CO)NC(=O)[C@H](CC(C)C)NC(=O)[C@H](CC(=O)O)NC(=O)[C@H](CO)NC(=O)[C@@H](NC(=O)[C@H](Cc1ccccc1)NC(=O)[C@@H](NC(=O)CNC(=O)[C@H](CCC(N)=O)NC(=O)C(C)(C)NC(=O)[C@@H](N)Cc1ccc(O)cc1)[C@@H](C)O)[C@@H](C)O)[C@@H](C)CC)C(=O)N[C@@H](CC(=O)O)C(=O)N[C@@H](CO)C(=O)N[C@@H](CCC(=O)O)C(=O)N[C@@H](C)C(=O)N[C@@H](C)C(=O)N[C@@H](CCC(N)=O)C(=O)N[C@@H](CC(=O)O)C(=O)N[C@@H](Cc1ccccc1)C(=O)N[C@H](C(=O)N[C@@H](CCC(=O)O)C(=O)N[C@@H](Cc1c[nH]c2ccccc12)C(=O)N[C@@H](CC(C)C)C(=O)N[C@@H](CCCCN)C(=O)N[C@@H](C)C(=O)NCC(=O)NCC(=O)N1CCC[C@H]1C(=O)N[C@@H](CO)C(=O)N[C@@H](CO)C(=O)NCC(=O)N[C@@H](C)C(=O)N1CCC[C@H]1C(=O)N1CCC[C@H]1C(=O)N1CCC[C@H]1C(=O)N[C@@H](CO)C(N)=O)[C@@H](C)CC)C(=O)O [SEQ ID NO: 48, Y-Aib-Q-G-T-F-T-S-D-L-S-I-Q-K(yE-x53)-DSEAAQDFIEWLKAGGPSSGAPPPS-NH2] (H-Y[Aib]QGTFTSDLSIQK([γGlu-Palmitoyl])DSEAAQDFIEWLKAGGPSSGAPPPS-NH2) | 0.0101 | 0.0158 | 0.478
3 | CCCCCCCCCCCCCCCC(=O)N[C@@H](CCC(=O)NCCCC[C@H](NC(=O)[C@H](CCC(N)=O)NC(=O)[C@@H](NC(=O)[C@H](CO)NC(=O)[C@H](CC(C)C)NC(=O)[C@H](CC(=O)O)NC(=O)[C@H](CO)NC(=O)[C@@H](NC(=O)[C@H](Cc1ccccc1)NC(=O)[C@@H](NC(=O)CNC(=O)[C@H](CCC(N)=O)NC(=O)C(C)(C)NC(=O)[C@@H](N)Cc1ccc(O)cc1)[C@@H](C)O)[C@@H](C)O)[C@@H](C)CC)C(=O)N[C@@H](CC(=O)O)C(=O)N[C@@H](CO)C(=O)N[C@H](C(=O)N[C@@H](C)C(=O)N[C@@H](C)C(=O)N[C@@H](CCC(N)=O)C(=O)N[C@@H](CC(=O)O)C(=O)N[C@@H](Cc1ccccc1)C(=O)N[C@H](C(=O)N[C@@H](CCC(=O)O)C(=O)N[C@@H](Cc1c[nH]c2ccccc12)C(=O)N[C@@H](CC(C)C)C(=O)N[C@@H](CCCCN)C(=O)N[C@@H](C)C(=O)NCC(=O)NCC(=O)N1CCC[C@H]1C(=O)N[C@@H](CO)C(=O)N[C@@H](CO)C(=O)NCC(=O)N[C@@H](C)C(=O)N1CCC[C@H]1C(=O)N1CCC[C@H]1C(=O)N1CCC[C@H]1C(=O)N[C@@H](CO)C(N)=O)[C@@H](C)CC)[C@@H](C)CC)C(=O)O [SEQ ID NO: 49, Y-Aib-Q-G-T-F-T-S-D-L-S-I-Q-K(yE-x53)-DSIAAQDFIEWLKAGGPSSGAPPPS-NH2] (H-Y[Aib]QGTFTSDLSIQK([γGlu-Palmitoyl])DSIAAQDFIEWLKAGGPSSGAPPPS-NH2) | 0.0172 | 0.0456 | 0.195
4 | CCCCCCCCCCCCCCCC(=O)N[C@@H](CCC(=O)NCCCC[C@H](NC(=O)[C@H](CCC(N)=O)NC(=O)[C@@H](NC(=O)[C@H](CO)NC(=O)[C@H](CC(C)C)NC(=O)[C@H](CC(=O)O)NC(=O)[C@H](CO)NC(=O)[C@@H](NC(=O)[C@H](Cc1ccccc1)NC(=O)[C@@H](NC(=O)CNC(=O)[C@H](CCC(N)=O)NC(=O)C(C)(C)NC(=O)[C@@H](N)Cc1ccc(O)cc1)[C@@H](C)O)[C@@H](C)O)[C@@H](C)CC)C(=O)N[C@@H](CC(=O)O)C(=O)N[C@@H](CO)C(=O)N[C@@H](CCCNC(=N)N)C(=O)N[C@@H](C)C(=O)N[C@H](C(=O)N[C@@H](CCC(N)=O)C(=O)N[C@@H](CC(=O)O)C(=O)N[C@@H](Cc1ccccc1)C(=O)N[C@H](C(=O)N[C@@H](CCC(=O)O)C(=O)N[C@@H](Cc1c[nH]c2ccccc12)C(=O)N[C@@H](CC(C)C)C(=O)N[C@@H](CCCCN)C(=O)N[C@@H](C)C(=O)NCC(=O)NCC(=O)N1CCC[C@H]1C(=O)N[C@@H](CO)C(=O)N[C@@H](CO)C(=O)NCC(=O)N[C@@H](C)C(=O)N1CCC[C@H]1C(=O)N1CCC[C@H]1C(=O)N1CCC[C@H]1C(=O)N[C@@H](CO)C(N)=O)[C@@H](C)CC)C(C)C)C(=O)O [SEQ ID NO: 50, Y-Aib-Q-G-T-F-T-S-D-L-S-I-Q-K(yE-x53)-DSRAVQDFIEWLKAGGPSSGAPPPS-NH2] (H-Y[Aib]QGTFTSDLSIQK([γGlu-Palmitoyl])DSRAVQDFIEWLKAGGPSSGAPPPS-NH2) | 0.01 | 0.0479 | 1.72
5 | CCCCCCCCCCCCCCCC(=O)N[C@@H](CCC(=O)NCCCC[C@H](NC(=O)[C@H](CCC(N)=O)NC(=O)[C@@H](NC(=O)[C@H](CO)NC(=O)[C@H](CC(C)C)NC(=O)[C@H](CC(=O)O)NC(=O)[C@H](CO)NC(=O)[C@@H](NC(=O)[C@H](Cc1ccccc1)NC(=O)[C@@H](NC(=O)CNC(=O)[C@H](CCC(N)=O)NC(=O)C(C)(C)NC(=O)[C@@H](N)Cc1ccc(O)cc1)[C@@H](C)O)[C@@H](C)O)[C@@H](C)CC)C(=O)N[C@@H](CC(=O)O)C(=O)N[C@@H](CO)C(=O)N[C@@H](CCCNC(=N)N)C(=O)N[C@@H](C)C(=O)N[C@@H](CCC(N)=O)C(=O)N[C@@H](CCC(N)=O)C(=O)N[C@@H](CC(=O)O)C(=O)N[C@@H](Cc1ccccc1)C(=O)N[C@H](C(=O)N[C@@H](CCC(=O)O)C(=O)N[C@@H](Cc1c[nH]c2ccccc12)C(=O)N[C@@H](CC(C)C)C(=O)N[C@@H](CCCCN)C(=O)N[C@@H](C)C(=O)NCC(=O)NCC(=O)N1CCC[C@H]1C(=O)N[C@@H](CO)C(=O)N[C@@H](CO)C(=O)NCC(=O)N[C@@H](C)C(=O)N1CCC[C@H]1C(=O)N1CCC[C@H]1C(=O)N1CCC[C@H]1C(=O)N[C@@H](CO)C(N)=O)[C@@H](C)CC)C(=O)O [SEQ ID NO: 51, Y-Aib-Q-G-T-F-T-S-D-L-S-I-Q-K(yE-x53)-DSRAQQDFIEWLKAGGPSSGAPPPS-NH2] (H-Y[Aib]QGTFTSDLSIQK([γGlu-Palmitoyl])DSRAQQDFIEWLKAGGPSSGAPPPS-NH2) | 0.0042 | 0.0063 | 0.571
